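Tested at 5 concentrations; 48 h exposure; 96-well plates; endpoints linearly interpolated, else capped at highest concentration. GI50: concentration for 50% inhibition of growth. TGI denotes the concentration required for complete inhibition of growth.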
Tests used:
Experiment in all cases: growth of human tumour cells (NCI), 48 h
SF-268 CNS = test system: SF-268 CNS
M14 melanoma = test system: M14 melanoma
PC-3 prostate = test system: PC-3 prostate
IGROV1 ovarian = test system: IGROV1 ovarian
NCI-H460 lung = test system: NCI-H460 lung
RPMI-8226 leukemia = test system: RPMI-8226 leukemia
CCRF-CEM leukemia = test system: CCRF-CEM leukemia
K-562 leukemia = test system: K-562 leukemia
SF-539 CNS = test system: SF-539 CNS
HL-60(TB) leukemia = test system: HL-60(TB) leukemia
SK-MEL-28 melanoma = test system: SK-MEL-28 melanoma
A549 NSCLC = test system: A549 NSCLC
MCF7 breast = test system: MCF7 breast
SR leukemia = test system: SR leukemia
SW-620 colon = test system: SW-620 colon
OVCAR-5 ovarian = test system: OVCAR-5 ovarian
MDA-MB-231 breast = test system: MDA-MB-231 breast
HS 578T breast = test system: HS 578T breast
UO-31 renal = test system: UO-31 renal
BT-549 breast = test system: BT-549 breast
KM12 colon = test system: KM12 colon
COLO 205 colon = test system: COLO 205 colon
CAKI-1 renal = test system: CAKI-1 renal
OVCAR-3 ovarian = test system: OVCAR-3 ovarian
MDA-MB-435 = test system: MDA-MB-435
HOP-62 NSCLC = test system: HOP-62 NSCLC
TK-10 renal = test system: TK-10 renal
NCI-H23 lung = test system: NCI-H23 lung
786-0 renal = test system: 786-0 renal
OVCAR-8 ovarian = test system: OVCAR-8 ovarian
NCI/ADR-RES ovarian = test system: NCI/ADR-RES ovarian
LOX IMVI melanoma = test system: LOX IMVI melanoma
ACHN renal = test system: ACHN renal
OVCAR-4 ovarian = test system: OVCAR-4 ovarian
MOLT-4 leukemia = test system: MOLT-4 leukemia
MALME-3M melanoma = test system: MALME-3M melanoma
HOP-92 NSCLC = test system: HOP-92 NSCLC
SNB-75 CNS = test system: SNB-75 CNS
HT29 colon = test system: HT29 colon
SNB-19 CNS = test system: SNB-19 CNS
U251 CNS = test system: U251 CNS
SK-MEL-5 melanoma = test system: SK-MEL-5 melanoma
HCT-15 colon = test system: HCT-15 colon
T-47D breast = test system: T-47D breast
UACC-62 melanoma = test system: UACC-62 melanoma
SF-295 CNS = test system: SF-295 CNS
HCC-2998 colon = test system: HCC-2998 colon
SN12C renal = test system: SN12C renal
HCT-116 colon = test system: HCT-116 colon
NCI-H522 lung = test system: NCI-H522 lung
NCI-H226 lung = test system: NCI-H226 lung
SK-OV-3 ovarian = test system: SK-OV-3 ovarian
SK-MEL-2 melanoma = test system: SK-MEL-2 melanoma
DU-145 prostate = test system: DU-145 prostate
EKVX NSCLC = test system: EKVX NSCLC

`N[C@@H](Cc1c[nH]c2ccccc12)C(=O)NC1CCN(Cc2c[nH]c3ccc(Cl)cc23)CC1` gave a GI50 (SF-268 CNS) of 7.74 µM, a TGI (SF-268 CNS) of 22 µM and a GI50 (M14 melanoma) of 6.4 µM. For the same compound, the TGI (M14 melanoma) was 19.5 µM, the GI50 (PC-3 prostate) was 6.01 µM and the TGI (PC-3 prostate) was 19.9 µM. It also gave a GI50 (IGROV1 ovarian) of 8.78 µM, a TGI (IGROV1 ovarian) of 23.4 µM and a GI50 (NCI-H460 lung) of 4.71 µM. For the same compound, the TGI (NCI-H460 lung) was 16 µM, the GI50 (RPMI-8226 leukemia) was 6.23 µM and the TGI (RPMI-8226 leukemia) was 23.3 µM. The GI50 (CCRF-CEM leukemia) was 2.15 µM, the TGI (CCRF-CEM leukemia) was 4.95 µM and the GI50 (K-562 leukemia) was 2.72 µM. It also gave a TGI (K-562 leukemia) of 12.5 µM, a GI50 (SF-539 CNS) of 5.62 µM and a TGI (SF-539 CNS) of 20.2 µM. The GI50 (HL-60(TB) leukemia) was 7.04 µM, the TGI (HL-60(TB) leukemia) was 24.4 µM and the GI50 (SK-MEL-28 melanoma) was 1.99 µM. For the same compound, the TGI (SK-MEL-28 melanoma) was 4.48 µM, the GI50 (A549 NSCLC) was 13.9 µM and the TGI (A549 NSCLC) was 27.5 µM. For the same compound, the GI50 (MCF7 breast) was 5.63 µM, the TGI (MCF7 breast) was 20.9 µM and the GI50 (SR leukemia) was 2.33 µM. For the same compound, the TGI (SR leukemia) was 6.46 µM, the GI50 (SW-620 colon) was 4.79 µM and the TGI (SW-620 colon) was 16.8 µM. The GI50 (OVCAR-5 ovarian) was 5.14 µM, the TGI (OVCAR-5 ovarian) was 20.8 µM and the GI50 (MDA-MB-231 breast) was 2.32 µM. It also gave a TGI (MDA-MB-231 breast) of 6 µM, a GI50 (HS 578T breast) of 7.63 µM and a TGI (HS 578T breast) of 24.5 µM. It also gave a GI50 (UO-31 renal) of 13 µM, a TGI (UO-31 renal) of 26.4 µM and a GI50 (BT-549 breast) of 16 µM. For the same compound, the TGI (BT-549 breast) was 34.4 µM, the GI50 (KM12 colon) was 4.6 µM and the TGI (KM12 colon) was 16.9 µM. For the same compound, the GI50 (COLO 205 colon) was 2.11 µM, the TGI (COLO 205 colon) was 4.65 µM and the GI50 (CAKI-1 renal) was 17.8 µM. It also gave a TGI (CAKI-1 renal) of 47.4 µM, a GI50 (OVCAR-3 ovarian) of 10.5 µM and a TGI (OVCAR-3 ovarian) of 22.5 µM. The GI50 (MDA-MB-435) was 5.99 µM, the TGI (MDA-MB-435) was 18.7 µM and the GI50 (HOP-62 NSCLC) was 11 µM. For the same compound, the TGI (HOP-62 NSCLC) was 24.8 µM, the GI50 (TK-10 renal) was 13.4 µM and the TGI (TK-10 renal) was 27.2 µM. For the same compound, the GI50 (NCI-H23 lung) was 15.3 µM, the TGI (NCI-H23 lung) was 30.7 µM and the GI50 (786-0 renal) was 11.4 µM. It also gave a TGI (786-0 renal) of 24.9 µM, a GI50 (OVCAR-8 ovarian) of 15.1 µM and a TGI (OVCAR-8 ovarian) of 29.6 µM. The GI50 (NCI/ADR-RES ovarian) was 65.3 µM, the TGI (NCI/ADR-RES ovarian) was > 100 µM and the GI50 (LOX IMVI melanoma) was 2.77 µM. The TGI (LOX IMVI melanoma) was 8.95 µM, the GI50 (ACHN renal) was 13.4 µM and the TGI (ACHN renal) was 27.7 µM. For the same compound, the GI50 (OVCAR-4 ovarian) was 8.14 µM, the TGI (OVCAR-4 ovarian) was 22 µM and the GI50 (MOLT-4 leukemia) was 2.79 µM. The TGI (MOLT-4 leukemia) was 9.6 µM, the GI50 (MALME-3M melanoma) was 1.86 µM and the TGI (MALME-3M melanoma) was 3.98 µM. The GI50 (HOP-92 NSCLC) was 3.86 µM, the TGI (HOP-92 NSCLC) was 17.2 µM and the GI50 (SNB-75 CNS) was 11.6 µM. For the same compound, the TGI (SNB-75 CNS) was 29.1 µM, the GI50 (HT29 colon) was 10.8 µM and the TGI (HT29 colon) was 23.5 µM. It also gave a GI50 (SNB-19 CNS) of 10.4 µM, a TGI (SNB-19 CNS) of 23.9 µM and a GI50 (U251 CNS) of 10.6 µM. It also gave a TGI (U251 CNS) of 22.7 µM, a GI50 (SK-MEL-5 melanoma) of 13.1 µM and a TGI (SK-MEL-5 melanoma) of 25.9 µM. The GI50 (HCT-15 colon) was 16.2 µM, the TGI (HCT-15 colon) was 31 µM and the GI50 (T-47D breast) was 4.65 µM. It also gave a TGI (T-47D breast) of 20 µM, a GI50 (UACC-62 melanoma) of 5.56 µM and a TGI (UACC-62 melanoma) of 18.3 µM. For the same compound, the GI50 (SF-295 CNS) was 6.34 µM, the TGI (SF-295 CNS) was 20.1 µM and the GI50 (HCC-2998 colon) was 3.3 µM. For the same compound, the TGI (HCC-2998 colon) was 13.4 µM, the GI50 (SN12C renal) was 15.3 µM and the TGI (SN12C renal) was 30.4 µM. It also gave a GI50 (HCT-116 colon) of 3.87 µM, a TGI (HCT-116 colon) of 12.6 µM and a GI50 (NCI-H522 lung) of 10 µM. The TGI (NCI-H522 lung) was 22.7 µM, the GI50 (NCI-H226 lung) was 15.4 µM and the TGI (NCI-H226 lung) was 34.1 µM. The GI50 (SK-OV-3 ovarian) was 14.6 µM, the TGI (SK-OV-3 ovarian) was 28.1 µM and the GI50 (SK-MEL-2 melanoma) was 16.6 µM. The TGI (SK-MEL-2 melanoma) was 31.8 µM, the GI50 (DU-145 prostate) was 8.76 µM and the TGI (DU-145 prostate) was 21.2 µM. For the same compound, the GI50 (EKVX NSCLC) was 10.9 µM and the TGI (EKVX NSCLC) was 25.1 µM.
